In brackets after ≈: the same amount, converted by molar mass.
Legend:
Assay in all cases: in vitro antibacterial evaluation, MIC by broth dilution
Assay type in all cases: cell-based
Escherichia coli = settings: 18 hours at 35° C.
Outline: (§1)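 Test organisms, which included recent clinical isolates resistant to methicillin, penicillin and/or vancomycin, were inoculated at 5×10^5 CFU/mL into Muller-Hinton II […] containing antibiotic at 64-0.06 μg/mL. Minimum inhibitory concentrations were then read as the lowest level inhibiting growth.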

Enterococcus sp. = settings: broth dilution, 18 hours at 35° C.
Outline: as §1

Staphylococcus sp. = settings: broth dilution, 18 hours at 35° C.
Outline: as §1

Streptococcus sp. = settings: broth dilution, 18 hours at 35° C.
Outline: as §1

CC(c1ccccc1)C1NC(=O)CNC(=O)C(CO)NC(=O)C(C(O)C2CNC(=N)N2C2OC(CO)C(O)C(O)C2O)NC(=O)C(C(O)C2CNC(=N)N2)NC(=O)C(Cc2ccc(OC3OC(CO)C(OC4OC5COC(CC67CC8CC(CC(C8)C6)C7)OC5C(O)C4O)C(O)C3O)cc2)NC1=O (stereo not shown) [Example 129]
MIC Escherichia coli (ATCC 25922) (Escherichia coli; strain ATCC 25922): 32 µg/mL (≈ 22 µM) | MIC Escherichia coli (GC 4559) (Escherichia coli; strain GC 4559): 32 µg/mL (≈ 22 µM) | MIC Escherichia coli (GC 4560) (Escherichia coli; strain GC 4560): 2 µg/mL (≈ 1.37 µM) | MIC Enterococcus avium (GC 4558) (Enterococcus sp.; Enterococcus avium (GC 4558)): 2 µg/mL (≈ 1.37 µM) | MIC Enterococcus faecalis (ATCC 29212) (Enterococcus sp.; Enterococcus faecalis (ATCC 29212)): 2 µg/mL (≈ 1.37 µM) | MIC Enterococcus faecalis (GC 2242) (Enterococcus sp.; Enterococcus faecalis (GC 2242)): 2 µg/mL (≈ 1.37 µM) | MIC Enterococcus faecalis (GC 2691) (Enterococcus sp.; Enterococcus faecalis (GC 2691)): 2 µg/mL (≈ 1.37 µM) | MIC Enterococcus faecalis (GC 3059) (Enterococcus sp.; Enterococcus faecalis (GC 3059)): 2 µg/mL (≈ 1.37 µM) | MIC Enterococcus faecalis (GC 4552) (Enterococcus sp.; Enterococcus faecalis (GC 4552)): 2 µg/mL (≈ 1.37 µM) | MIC Enterococcus faecalis (GC 4553) (Enterococcus sp.; Enterococcus faecalis (GC 4553)): 2 µg/mL (≈ 1.37 µM) | MIC Enterococcus faecalis (GC 4554) (Enterococcus sp.; Enterococcus faecalis (GC 4554)): 2 µg/mL (≈ 1.37 µM) | MIC Enterococcus faecalis (GC 6189) (Enterococcus sp.; Enterococcus faecalis (GC 6189)): 2 µg/mL (≈ 1.37 µM) | MIC Enterococcus faecium (GC 2243) (Enterococcus sp.; Enterococcus faecium (GC 2243)): 2 µg/mL (≈ 1.37 µM) | MIC Enterococcus faecium (GC 4556) (Enterococcus sp.; Enterococcus faecium (GC 4556)): 2 µg/mL (≈ 1.37 µM) | MIC Enterococcus faecium (GC 4557) (Enterococcus sp.; Enterococcus faecium (GC 4557)): 2 µg/mL (≈ 1.37 µM) | MIC Enterococcus faecalis (ATCC 29212) (Enterococcus sp.; strain ATCC 29212): 2 µg/mL (≈ 1.37 µM) | MIC Enterococcus faecalis (GC 2242) (Enterococcus sp.; strain GC 2242): 2 µg/mL (≈ 1.37 µM) | MIC Enterococcus faecium (GC 2243) (Enterococcus sp.; strain GC 2243): 2 µg/mL (≈ 1.37 µM) | MIC Enterococcus faecalis (GC 2691) (Enterococcus sp.; strain GC 2691): 2 µg/mL (≈ 1.37 µM) | MIC Enterococcus faecalis (GC 3059) (Enterococcus sp.; strain GC 3059): 2 µg/mL (≈ 1.37 µM) | MIC Enterococcus faecalis (GC 4552) (Enterococcus sp.; strain GC 4552): 2 µg/mL (≈ 1.37 µM) | MIC Enterococcus faecalis (GC 4553) (Enterococcus sp.; strain GC 4553): 2 µg/mL (≈ 1.37 µM) | MIC Enterococcus faecalis (GC 4554) (Enterococcus sp.; strain GC 4554): 2 µg/mL (≈ 1.37 µM) | MIC Enterococcus faecium (GC 4556) (Enterococcus sp.; strain GC 4556): 2 µg/mL (≈ 1.37 µM) | MIC Enterococcus faecium (GC 4557) (Enterococcus sp.; strain GC 4557): 2 µg/mL (≈ 1.37 µM) | MIC Enterococcus avium (GC 4558) (Enterococcus sp.; strain GC 4558): 2 µg/mL (≈ 1.37 µM) | MIC Enterococcus faecalis (GC 6189) (Enterococcus sp.; strain GC 6189): 2 µg/mL (≈ 1.37 µM) | MIC Staphylococcus aureus (ATCC 29213) (Staphylococcus sp.): 4 µg/mL (≈ 2.75 µM) | MIC Staphylococcus aureus (GC 1131) (Staphylococcus sp.): 2 µg/mL (≈ 1.37 µM) | MIC Staphylococcus aureus (GC 3051) (Staphylococcus sp.): 2 µg/mL (≈ 1.37 µM) | MIC Staphylococcus aureus (GC 3053) (Staphylococcus sp.): 2 µg/mL (≈ 1.37 µM) | MIC Staphylococcus aureus (GC 4541) (Staphylococcus sp.): 2 µg/mL (≈ 1.37 µM) | MIC Staphylococcus aureus (GC 4542) (Staphylococcus sp.): 2 µg/mL (≈ 1.37 µM) | MIC Staphylococcus aureus (GC 4544) (Staphylococcus sp.): 2 µg/mL (≈ 1.37 µM) | MIC Staphylococcus aureus (GC 4545) (Staphylococcus sp.): 2 µg/mL (≈ 1.37 µM) | MIC Staphylococcus aureus (GC 1131) (Staphylococcus sp.; inoculum 5×10^5 CFU/mL, strain GC 1131): 2 µg/mL (≈ 1.37 µM) | MIC Staphylococcus aureus (ATCC 29213) (Staphylococcus sp.; strain ATCC 29213): 4 µg/mL (≈ 2.75 µM) | MIC Staphylococcus aureus (GC 3051) (Staphylococcus sp.; strain GC 3051): 2 µg/mL (≈ 1.37 µM) | MIC Staphylococcus aureus (GC 3053) (Staphylococcus sp.; strain GC 3053): 2 µg/mL (≈ 1.37 µM) | MIC Staphylococcus aureus (GC 4541) (Staphylococcus sp.; strain GC 4541): 2 µg/mL (≈ 1.37 µM) | MIC Staphylococcus aureus (GC 4542) (Staphylococcus sp.; strain GC 4542): 2 µg/mL (≈ 1.37 µM) | MIC Staphylococcus aureus-SMITH (GC 4543) (Staphylococcus sp.; strain GC 4543): 2 µg/mL (≈ 1.37 µM) | MIC Staphylococcus aureus (GC 4544) (Staphylococcus sp.; strain GC 4544): 2 µg/mL (≈ 1.37 µM) | MIC Staphylococcus aureus (GC 4545) (Staphylococcus sp.; strain GC 4545): 2 µg/mL (≈ 1.37 µM) | MIC Staphylococcus haemolyticus (GC 4546) (Staphylococcus sp.; strain GC 4546): 2 µg/mL (≈ 1.37 µM) | MIC Coagulase Negative Staphylococcus (GC 4547) (Staphylococcus sp.; strain GC 4547): 2 µg/mL (≈ 1.37 µM) | MIC Coagulase Negative Staphylococcus (GC 4548) (Staphylococcus sp.; strain GC 4548): 1 µg/mL (≈ 0.687 µM) | MIC Coagulase Negative Staphylococcus (GC 4549) (Staphylococcus sp.; strain GC 4549): 1 µg/mL (≈ 0.687 µM) | MIC Coagulase Negative Staphylococcus (GC 4551) (Staphylococcus sp.; strain GC 4551): 4 µg/mL (≈ 2.75 µM) | MIC Coagulase Negative Staphylococcus (GC 6257) (Staphylococcus sp.; strain GC 6257): 1 µg/mL (≈ 0.687 µM) | MIC Staphylococcus aureus-SMITH (GC 4543) (Staphylococcus sp.; strain SMITH GC 4543): 2 µg/mL (≈ 1.37 µM) | MIC Streptococcus agalactiae (GC 4564) (Streptococcus sp.; Streptococcus agalactiae (GC 4564)): <0.06 µg/mL | MIC Streptococcus pneumoniae (ATCC 6301) (Streptococcus sp.; Streptococcus pneumoniae (ATCC 6301)): <0.06 µg/mL | MIC Streptococcus pneumoniae (GC 1894) (Streptococcus sp.; Streptococcus pneumoniae (GC 1894)): <0.06 µg/mL | MIC Streptococcus pneumoniae (GC 4565) (Streptococcus sp.; Streptococcus pneumoniae (GC 4565)): <0.06 µg/mL | MIC Streptococcus pyogenes (GC 4563) (Streptococcus sp.; Streptococcus pyogenes (GC 4563)): <0.06 µg/mL | MIC Streptococcus pneumoniae (ATCC 6301) (Streptococcus sp.; strain ATCC 6301): <0.06 µg/mL | MIC Streptococcus pneumoniae (GC 1894) (Streptococcus sp.; strain GC 1894): <0.06 µg/mL | MIC Streptococcus pyogenes (GC 4563) (Streptococcus sp.; strain GC 4563): <0.06 µg/mL | MIC Streptococcus agalactiae (GC 4564) (Streptococcus sp.; strain GC 4564): <0.06 µg/mL | MIC Streptococcus pneumoniae (GC 4565) (Streptococcus sp.; strain GC 4565): <0.06 µg/mL
